The source of these data is patent US20250297028A1, “TREATMENT OF RENAL CANCER USING A COMBINATION OF AN ANTI-PD-1 ANTIBODY AND ANOTHER ANTI-CANCER AGENT” (BRISTOL-MYERS SQUIBB COMPANY, priority 2014, published 2025).

Like-named read-outs stand apart in the source and are kept apart here.

For data set [1], the system named is renal cell carcinoma (RCC). The settings on record: cited from earlier work; for OS (overall survival): phase 3, poor-risk patients with advanced RCC (Hudes et al., 2007).
In data set [2] the test system is tumor-infiltrating immune cells in Renca tumors. The data set can be described thus: Immune cell infiltration of Renca tumors (immunohistochemistry, flow cytometry). The format is in vivo, mouse. To be noted: versus control group. On the procedure: Immunohistochemistry and flow cytometry analyses were used to assess immune cell infiltration of tumors.
Frozen sections were fixed in an acetone/methanol mix and rinsed in phosphate-buffered saline (PBS). Sections were blocked for endogenous peroxidase and the primary antibodies (anti-CD8, anti-CD4, anti-FoxP3, and anti-PD-L1) were added and incubated overnight. Chromogenic development was done using a brown polymer-based detection system (Biocare Medical), with hematoxylin used as a blue counter stain for visualization of cellular nuclei.
Tumor-infiltrating immune cells were isolated and prepared as a single-cell suspension, then stained and analyzed via flow cytometry for expression of T-cell subsets (regulatory and activated) and myeloid cells (i.e., for expression of CD3, CD4, CD8, FoxP3, CD25, and CD69).
(Flow cytometry measures light scatter and fluorescence of single cells or particles in a stream.)

In data set [3] the test system is murine renal carcinoma (Renca) tumor. Kind of data set: Efficacy study in Renca murine RCC tumor model. It counts as in vivo, mouse. To be noted: for % TGI (tumor growth inhibition) / Objective Responses (ORs): 33 days after implantation; for % TGI (tumor growth inhibition): sunitinib 120 mg/kg QD×14 PO, sorafenib 200 mg/kg QD×14 PO, 4H2 10 mg/kg Q4D×4 IP; for Objective Responses (ORs): responders/8 mice. The text has this: Female 8-12 weeks old Balb/c and C57/BL6 mice (Harlan Laboratories, Federick, MD) were used in all studies. Mice were housed in sterile microisolator cages and administered sterile food and water ad libitum, unless otherwise specified.
The murine renal carcinoma (Renca) and murine colon adenocarcinoma (CT-26) tumor cell lines were maintained in vitro for less than 10 passages.
Tumor cells were implanted subcutaneously (SC). When the mean tumor volume reached about 100 mm^3, mice were randomized into groups of 8 animals. Vehicle (control), sunitinib (120 mg/kg) or sorafenib (200 mg/kg) was orally administered once daily for 14 days (QD×14, PO). MAb 4H2 was administered at 10 mg/kg every 4 days for a total of 4 treatments (Q4D×4) intraperitoneally (IP). Tumors were measured twice weekly, and the tumor volume was calculated as length×(width^2/2).

The next data set addresses T1, PD-1 (Homo sapiens, UniProt Q15116).
T1 construct: indicate that PD-1 occupancy appears to be dose-independent in this dose range; endogenous in cells
The settings on record: 15 subjects, 0.3 to 10 mg/kg, across all doses; cited from earlier work.

For data set [4] the following is noted: dosing up to 10 mg/kg every two weeks; cited from earlier work.

T1 sequence (Q15116 25-288): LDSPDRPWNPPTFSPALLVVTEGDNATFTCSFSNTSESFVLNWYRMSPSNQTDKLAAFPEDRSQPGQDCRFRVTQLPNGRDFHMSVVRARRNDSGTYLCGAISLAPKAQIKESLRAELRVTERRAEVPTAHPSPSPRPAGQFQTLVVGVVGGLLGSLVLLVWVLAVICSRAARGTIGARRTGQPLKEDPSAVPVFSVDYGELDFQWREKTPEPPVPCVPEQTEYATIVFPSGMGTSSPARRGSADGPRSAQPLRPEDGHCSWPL

For the molecule `CO[C@H]1C[C@@H]2CC[C@@H](C)[C@@](O)(O2)C(=O)C(=O)N2CCCC[C@H]2C(=O)O[C@H]([C@H](C)C[C@@H]2CC[C@@H](OCCO)[C@H](OC)C2)CC(=O)[C@H](C)/C=C(\C)[C@@H](O)[C@@H](OC)C(=O)[C@H](C)C[C@H](C)/C=C/C=C/C=C/1C` [Everolimus], in data set [1] (Motzer et al., 2008), the “improvement in median progression-free survival (PFS) versus placebo” value is 2.1 month. Further, in data set [1] (versus placebo (Motzer et al., 2008)), the OS improvement entry is recorded as “no OS improvement”.

`CNC(=O)c1cc(Oc2ccc(NC(=O)Nc3ccc(Cl)c(C(F)(F)F)c3)cc2)ccn1` [Sorafenib]: the response rate in data set [1] (randomized Phase 2, 128 treatment-naïve mRCC subjects (Procopio et al., 2011)) is 15%. Further, the “infiltration of CD4+ and CD8+ T cells into tumor (IHC)” value in data set [2] is recorded as “increased T-cell infiltration into the tumor was not observed”. Besides, in data set [3], the “% TGI (tumor growth inhibition)” value turned out to be 62% and the “Objective Responses (ORs)” value is listed as 0/8. Also, in data set [3] (monotherapy), the “activity as monotherapy in Renca model” value is “active”.

For the molecule `CCN(CC)CCNC(=O)c1c(C)[nH]c(/C=C2\C(=O)Nc3ccc(F)cc32)c1C` [Sunitinib], in data set [3], the “% TGI (tumor growth inhibition)” value was 85% and the “Objective Responses (ORs)” value is 0/8.

With `CO[C@H]1C[C@@H]2CC[C@@H](C)[C@@](O)(O2)C(=O)C(=O)N2CCCC[C@H]2C(=O)O[C@H]([C@H](C)C[C@@H]2CC[C@@H](OC(=O)C(C)(CO)CO)[C@H](OC)C2)CC(=O)[C@H](C)/C=C(\C)[C@@H](O)[C@@H](OC)C(=O)[C@H](C)C[C@H](C)/C=C/C=C/C=C/1C` [temsirolimus], the “OS (overall survival)” value in data set [1] is 10.9 months.

Take IFNα: the “OS (overall survival)” value in data set [1] is 7.3 months.

Regarding “ipilimumab: fully human, IgG1 monoclonal Ab that blocks the binding of CTLA-4 to its B7 ligands”, the ORR in data set [1] (Phase 2 metastatic RCC, cohort A: 3 mg/kg loading dose then 1 mg/kg every 3 wk (Yang et al., 2007)) is 5%; in data set [1] (Phase 2 metastatic RCC, cohort B: 3 mg/kg every 3 wk for all doses (Yang et al., 2007)), 12.5%.

Turning to nivolumab, the ORR is 20% in data set [1] (0.3 mg/kg, Phase 2 metastatic RCC (Motzer et al., 2014)); 9% in data set [1] (0.3 mg/kg, pretreated with 1-3 prior anti-angiogenic therapies (Choueiri et al., 2014)); 22% in data set [1] (2 mg/kg, Phase 2 metastatic RCC (Motzer et al., 2014)); 23% in data set [1] (2 mg/kg, pretreated with 1-3 prior anti-angiogenic therapies (Choueiri et al., 2014)); 20% in data set [1] (10 mg/kg, Phase 2 metastatic RCC (Motzer et al., 2014)); 22% in data set [1] (10 mg/kg, pretreated with 1-3 prior anti-angiogenic therapies (Choueiri et al., 2014)). For the same molecule, the ORR in data set [1] (10 mg/kg, treatment-naïve patients (Choueiri et al., 2014)) was 13%; in data set [1] (nivolumab 1 or 10 mg/kg alone, RCC, Phase 1 (WO 2013/173223)) it was 28-31%. Further, on PD-1, the “mean PD-1 occupancy rate” value is listed as 85%. Also, the “mean plateau PD-1 occupancy” value at PD-1 is 72%. For the same molecule, the “maximum tolerated dose (MTD), monotherapy” value in data set [4] was “without reaching the maximum tolerated does (MTD)”.
